The values that follow are results of earlier work, collected in US5496703A, “Indirect immunoassay for dioxinlike compounds” (priority 1993, dated 1996).

Read-outs that look alike come from different tables or passages of the source.

Data set [1] relates to AHH. The following applies: nonresponsive DBA/2 inbred mouse strain; cited from earlier work.
In data set [2] the test system is AHH. The following applies: responsive C57BL/6J inbred mouse strain; cited from earlier work.
The next data set relates to Ah receptor. Particulars: cited from earlier work.

Consider `Cc1ccc2cc3c(ccc4ccccc43)c3c2c1CC3` [3-methylcholanthrene], for which the AHH induction result with AHH [1] is given as “not in the nonresponsive DBA/2 inbred mouse strain”; in the data set on AHH [2], “capable of inducing AHH activity”. Besides, the “binding affinity to Ah receptor” value with Ah receptor is recorded as “high affinity”.

Regarding `c1ccc2c(c1)cc1ccc3cccc4ccc2c1c34` [benzo[a]pyrene], in the data set with Ah receptor, the “binding affinity to Ah receptor” value is listed as “high affinity”.
